# Results published in ChEMBL document CHEMBL3885881, “DrugMatrix”.
# Organism: Rattus norvegicus
# Assay: DrugMatrix - Regimen: Daily Repeat
# Assay type: toxicity, organism-based, Sprague-Dawley
# Parameters: regimen Daily Repeat, gender Male, age 6-8 weeks
# Details: in vivo, po, route oral GAVAGE, vehicle .5 % CMC; for BASOPHIL / EOSINOPHIL / ERYTHROCYTE COUNT / HEMATOCRIT / HEMOGLOBIN / LEUKOCYTE COUNT / LYMPHOCYTE / MEAN CORPUSCULAR HEMOGLOBIN / MEAN CORPUSCULAR HEMOGLOBIN CONCENTRATION / MEAN CORPUSCULAR VOLUME / MONOCYTE / NEUTROPHIL / PLATELET COUNT: tissue Blood; for ALANINE AMINOTRANSFERASE / ALBUMIN / ALKALINE PHOSPHATASE / ASPARTATE AMINOTRANSFERASE / BLOOD UREA NITROGEN / CHOLESTEROL / CREATINE PHOSPHOKINASE / CREATININE / GLUCOSE / PHOSPHORUS / POTASSIUM / SODIUM / TOTAL BILIRUBIN / TOTAL PROTEIN: tissue Plasma
# [1] = 0 mg/kg, 72 h, dose level Control, time 3 day
# [2] = 0 mg/kg, 120 h, dose level Control, time 5 day
# [3] = 45 mg/kg, 72 h, dose level High, time 3 day
# [4] = 45 mg/kg, 120 h, dose level High, time 5 day
# [5] = […], 72 h, dose 1.1 mg/Kg, dose level Low, time 3 day
# [6] = […], 120 h, dose 1.1 mg/Kg, dose level Low, time 5 day
smiles,measurement,setting,value
COc1cc(NC(C)CCCN)c2ncccc2c1 (configuration not stated) [PRIMAQUINE],BASOPHIL,[1],0%
same,EOSINOPHIL,[1],0%
same,ERYTHROCYTE COUNT,[1],6.19 x10E6/uL
same,HEMATOCRIT,[1],36.94%
same,HEMOGLOBIN,[1],14.58 G/DL
same,LEUKOCYTE COUNT,[1],11.54 x10E3/uL
same,LYMPHOCYTE,[1],84.8%
same,MEAN CORPUSCULAR HEMOGLOBIN,[1],23.58 pg
same,MEAN CORPUSCULAR HEMOGLOBIN CONCENTRATION,[1],39.44 G/DL
same,MEAN CORPUSCULAR VOLUME,[1],59.76 fL
same,MONOCYTE,[1],1.4%
same,NEUTROPHIL,[1],13.8%
same,PLATELET COUNT,[1],1068.8 x10E3/uL
same,ALANINE AMINOTRANSFERASE,[1],38.17 u/L
same,ALBUMIN,[1],3.88 G/DL
same,ALKALINE PHOSPHATASE,[1],391.33 u/L
same,ASPARTATE AMINOTRANSFERASE,[1],69.83 u/L
same,BLOOD UREA NITROGEN,[1],15 mg/dL
same,CHOLESTEROL,[1],72.17 mg/dL
same,CREATINE PHOSPHOKINASE,[1],174.33 u/L
same,CREATININE,[1],0.58 mg/dL
same,GLUCOSE,[1],192.67 mg/dL
same,PHOSPHORUS,[1],10.52 mg/dL
same,POTASSIUM,[1],6.8 MEQ/L
same,SODIUM,[1],149.67 MEQ/L
same,TOTAL BILIRUBIN,[1],0.78 mg/dL
same,TOTAL PROTEIN,[1],6.28 G/DL
same,BASOPHIL,[2],0%
same,EOSINOPHIL,[2],0.17%
same,ERYTHROCYTE COUNT,[2],6.72 x10E6/uL
same,HEMATOCRIT,[2],40.02%
same,HEMOGLOBIN,[2],15.83 G/DL
same,LEUKOCYTE COUNT,[2],9.5 x10E3/uL
same,LYMPHOCYTE,[2],87.17%
same,MEAN CORPUSCULAR HEMOGLOBIN,[2],23.57 pg
same,MEAN CORPUSCULAR HEMOGLOBIN CONCENTRATION,[2],39.62 G/DL
same,MEAN CORPUSCULAR VOLUME,[2],59.55 fL
same,MONOCYTE,[2],1.67%
same,NEUTROPHIL,[2],11%
same,PLATELET COUNT,[2],1053.67 x10E3/uL
same,ALANINE AMINOTRANSFERASE,[2],26.33 u/L
same,ALBUMIN,[2],4.02 G/DL
same,ALKALINE PHOSPHATASE,[2],316.67 u/L
same,ASPARTATE AMINOTRANSFERASE,[2],61.33 u/L
same,BLOOD UREA NITROGEN,[2],18.67 mg/dL
same,CHOLESTEROL,[2],65.17 mg/dL
same,CREATINE PHOSPHOKINASE,[2],161.17 u/L
same,CREATININE,[2],0.75 mg/dL
same,GLUCOSE,[2],177.33 mg/dL
same,PHOSPHORUS,[2],9.72 mg/dL
same,POTASSIUM,[2],6.18 MEQ/L
same,SODIUM,[2],150.5 MEQ/L
same,TOTAL BILIRUBIN,[2],0.68 mg/dL
same,TOTAL PROTEIN,[2],6.55 G/DL
same,BASOPHIL,[3],0%
same,EOSINOPHIL,[3],0.33%
same,ERYTHROCYTE COUNT,[3],6.7 x10E6/uL
same,HEMATOCRIT,[3],40.07%
same,HEMOGLOBIN,[3],15.73 G/DL
same,LEUKOCYTE COUNT,[3],10.6 x10E3/uL
same,LYMPHOCYTE,[3],76.67%
same,MEAN CORPUSCULAR HEMOGLOBIN,[3],23.53 pg
same,MEAN CORPUSCULAR HEMOGLOBIN CONCENTRATION,[3],39.3 G/DL
same,MEAN CORPUSCULAR VOLUME,[3],59.87 fL
same,MONOCYTE,[3],2.67%
same,NEUTROPHIL,[3],20.33%
same,PLATELET COUNT,[3],1053 x10E3/uL
same,ALANINE AMINOTRANSFERASE,[3],83.33 u/L
same,ALBUMIN,[3],3.73 G/DL
same,ALKALINE PHOSPHATASE,[3],304.67 u/L
same,ASPARTATE AMINOTRANSFERASE,[3],358.33 u/L
same,BLOOD UREA NITROGEN,[3],10 mg/dL
same,CHOLESTEROL,[3],77.67 mg/dL
same,CREATINE PHOSPHOKINASE,[3],213.33 u/L
same,CREATININE,[3],0.67 mg/dL
same,GLUCOSE,[3],176 mg/dL
same,PHOSPHORUS,[3],11.23 mg/dL
same,POTASSIUM,[3],6.27 MEQ/L
same,SODIUM,[3],148.33 MEQ/L
same,TOTAL BILIRUBIN,[3],0.4 mg/dL
same,TOTAL PROTEIN,[3],6.03 G/DL
same,BASOPHIL,[4],0%
same,EOSINOPHIL,[4],0%
same,ERYTHROCYTE COUNT,[4],5.75 x10E6/uL
same,HEMATOCRIT,[4],35.53%
same,HEMOGLOBIN,[4],14.07 G/DL
same,LEUKOCYTE COUNT,[4],13.03 x10E3/uL
same,LYMPHOCYTE,[4],79.67%
same,MEAN CORPUSCULAR HEMOGLOBIN,[4],24.47 pg
same,MEAN CORPUSCULAR HEMOGLOBIN CONCENTRATION,[4],39.6 G/DL
same,MEAN CORPUSCULAR VOLUME,[4],61.83 fL
same,MONOCYTE,[4],3.67%
same,NEUTROPHIL,[4],16.67%
same,PLATELET COUNT,[4],778.33 x10E3/uL
same,ALANINE AMINOTRANSFERASE,[4],35.67 u/L
same,ALBUMIN,[4],3.63 G/DL
same,ALKALINE PHOSPHATASE,[4],336.33 u/L
same,ASPARTATE AMINOTRANSFERASE,[4],78.67 u/L
same,BLOOD UREA NITROGEN,[4],12 mg/dL
same,CHOLESTEROL,[4],67.33 mg/dL
same,CREATINE PHOSPHOKINASE,[4],151.67 u/L
same,CREATININE,[4],0.57 mg/dL
same,GLUCOSE,[4],177 mg/dL
same,PHOSPHORUS,[4],10.23 mg/dL
same,POTASSIUM,[4],6.03 MEQ/L
same,SODIUM,[4],149 MEQ/L
same,TOTAL BILIRUBIN,[4],0.47 mg/dL
same,TOTAL PROTEIN,[4],5.83 G/DL
same,BASOPHIL,[5],0%
same,EOSINOPHIL,[5],1%
same,ERYTHROCYTE COUNT,[5],5.53 x10E6/uL
same,HEMATOCRIT,[5],33.77%
same,HEMOGLOBIN,[5],13.73 G/DL
same,LEUKOCYTE COUNT,[5],11.03 x10E3/uL
same,LYMPHOCYTE,[5],85%
same,MEAN CORPUSCULAR HEMOGLOBIN,[5],24.87 pg
same,MEAN CORPUSCULAR HEMOGLOBIN CONCENTRATION,[5],40.77 G/DL
same,MEAN CORPUSCULAR VOLUME,[5],61 fL
same,MONOCYTE,[5],2%
same,NEUTROPHIL,[5],12%
same,PLATELET COUNT,[5],1053.67 x10E3/uL
same,ALANINE AMINOTRANSFERASE,[5],32.33 u/L
same,ALBUMIN,[5],3.57 G/DL
same,ALKALINE PHOSPHATASE,[5],308 u/L
same,ASPARTATE AMINOTRANSFERASE,[5],56.33 u/L
same,BLOOD UREA NITROGEN,[5],11.67 mg/dL
same,CHOLESTEROL,[5],75.33 mg/dL
same,CREATINE PHOSPHOKINASE,[5],161.67 u/L
same,CREATININE,[5],0.6 mg/dL
same,GLUCOSE,[5],178 mg/dL
same,PHOSPHORUS,[5],11.23 mg/dL
same,POTASSIUM,[5],6.57 MEQ/L
same,SODIUM,[5],148 MEQ/L
same,TOTAL BILIRUBIN,[5],0.4 mg/dL
same,TOTAL PROTEIN,[5],5.63 G/DL
same,BASOPHIL,[6],0%
same,EOSINOPHIL,[6],0.33%
same,ERYTHROCYTE COUNT,[6],6.36 x10E6/uL
same,HEMATOCRIT,[6],37.73%
same,HEMOGLOBIN,[6],15.4 G/DL
same,LEUKOCYTE COUNT,[6],11.63 x10E3/uL
same,LYMPHOCYTE,[6],91.33%
same,MEAN CORPUSCULAR HEMOGLOBIN,[6],24.37 pg
same,MEAN CORPUSCULAR HEMOGLOBIN CONCENTRATION,[6],41 G/DL
same,MEAN CORPUSCULAR VOLUME,[6],59.37 fL
same,MONOCYTE,[6],1.33%
same,NEUTROPHIL,[6],7%
same,PLATELET COUNT,[6],1065 x10E3/uL
same,ALANINE AMINOTRANSFERASE,[6],27 u/L
same,ALBUMIN,[6],3.9 G/DL
same,ALKALINE PHOSPHATASE,[6],323 u/L
same,ASPARTATE AMINOTRANSFERASE,[6],65.67 u/L
same,BLOOD UREA NITROGEN,[6],15.33 mg/dL
same,CHOLESTEROL,[6],71 mg/dL
same,CREATINE PHOSPHOKINASE,[6],141.33 u/L
same,CREATININE,[6],0.6 mg/dL
same,GLUCOSE,[6],169.33 mg/dL
same,PHOSPHORUS,[6],10.37 mg/dL
same,POTASSIUM,[6],6.4 MEQ/L
same,SODIUM,[6],151.67 MEQ/L
same,TOTAL BILIRUBIN,[6],0.43 mg/dL
same,TOTAL PROTEIN,[6],6.23 G/DL
